Experimental data taken from patent publication US9550772B2, “Azaindole derivatives as multi kinase inhibitors” (ORIBASE PHARMA, priority 2012, dated 2017).
pEC50: −log10 of the molar value. Like-named read-outs stand apart in the source and are kept apart here.

Tests used:
HuCCT1 cell line = assay: In vitro cell proliferation assay (MTT); format: cell-based; conditions: Homo sapiens, HuCCT-1, HuCCT1, 72 hr, EC50 ≧ 1 μM, read-out: EC50, anti-proliferative activity
Description: (§1) Cancer cell lines (5×10^3 cells per well) or HUVEC (1×10^4 cells per well) or HRMEC (1×10^4 cells per well) were distributed in 96-well plates and incubating in duplicate with escalating concentrations (10 nM to 3 μM) of compounds for 72 hr. Cell proliferation was measured using MTT (3[4,5-dimethylthiazol-2-yl]-2,5-diphenyltetrazolium bromide). The EC50 values were calculated from sigmoidal dose-response curves utilizing Prism 5.0 from Graph-Pad Software (GraphPad Software, La Jolla, Calif., USA), with values normalized to those of DMSO-treated control wells (0%) and 1% SDS control wells (100%).

HuH6 Clone 5 cell line = assay: In vitro cell proliferation assay (MTT); format: cell-based; conditions: HUH-6-clone5, HuH6 Clone 5, 72 hr, EC50 ≧ 1 μM, read-out: EC50, anti-proliferative activity
Description: as §1

HepG2 cell line = assay: In vitro cell proliferation assay (MTT); format: cell-based; conditions: Homo sapiens, HepG2, 72 hr, read-out: EC50, anti-proliferative activity
Description: as §1

HuH7 cell line = assay: In vitro cell proliferation assay (MTT); format: cell-based; conditions: Homo sapiens, Huh-7, HuH7, 72 hr, EC50 ≧ 1 μM, read-out: EC50, anti-proliferative activity
Description: as §1

HUVEC cells = assay: In vitro cell proliferation assay (MTT); format: cell-based; conditions: Homo sapiens, 72 hr, read-out: EC50, anti-proliferative activity
Description: as §1

PDGFRA (PDGFR alpha) = biological target: T1, PDGFRA (PDGFR alpha) (Homo sapiens, UniProt P16234); assay: In vitro kinase assay (Z'-LYTE, Invitrogen); format: biochemical; conditions: compound at 100 nM, ATP Km apparent, read-out: % of inhibition of the kinase compared to the control
T1 construct: purchased Invitrogen
Description: (§2) The inhibitory activity of the compounds on 7 kinases (BRAF, EGFR (ErbB1), EGFR (ErbB1) T790M L858R, FGFR2, KDR (VEGFR2), PDGFRA (PDGFR alpha), SRC) was evaluated by Invitrogen using the Z′-LYTE® technology. Briefly, the Z′-LYTE® biochemical assay employs a fluorescence-based, coupled-enzyme format and is based on the differential sensitivity of phosphorylated and non-phosphorylated peptides to proteolytic cleavage. The peptide substrate is labeled with two fluorophores—one at each end—that make up a FRET pair. A ratiometric method, which calculates the ratio (the Emission Ratio) of donor emission to acceptor emission after excitation of the donor fluorophore at 400 nm, is used to quantitate reaction progress.
(§3) The compounds are screened in 1% DMSO (final) in the well. For 10 point titrations, 3-fold serial dilutions are conducted from the starting concentration. All Peptide/Kinase Mixtures are diluted to a 2× working concentration in the appropriate Kinase Buffer. All ATP Solutions are diluted to a 4× working concentration in Kinase Buffer (50 mM HEPES pH 7.5, 0.01% BRIJ-35, 10 mM MgCl2, 1 mM EGTA). ATP Km apparent is previously determined using a Z′-LYTE® assay.
(§4) Each compound was incubated at a concentration of 100 nM and the tables 21 to 27 summarize the results obtained showing the inhibitory power of a compound.

KDR (VEGFR2) = biological target: T2, KDR (VEGFR2) (Homo sapiens, UniProt P35968); assay: In vitro kinase assay (Z'-LYTE, Invitrogen); format: biochemical; conditions: compound at 100 nM, ATP Km apparent, read-out: % of inhibition of the kinase compared to the control
T2 construct: purchased Invitrogen
Description: as §2, §3, §4

BRAF = biological target: T3, BRAF (Homo sapiens, UniProt P15056); assay: In vitro kinase assay (Z'-LYTE, Invitrogen); format: biochemical; conditions: compound at 100 nM, ATP Km apparent, read-out: % of inhibition of the kinase compared to the control
T3 construct: purchased Invitrogen
Description: as §2, §3, §4

EGFR (ErbB1) T790M L858R = biological target: T4, EGFR (ErbB1) T790M L858R (Homo sapiens, UniProt P00533, L858R/T790M); assay: In vitro kinase assay (Z'-LYTE, Invitrogen); format: biochemical; conditions: compound at 100 nM, ATP Km apparent, read-out: % of inhibition of the kinase compared to the control
T4 construct: purchased Invitrogen
Description: as §2, §3, §4

EGFR (ErbB1) = biological target: T5, EGFR (ErbB1) (Homo sapiens, UniProt P00533); assay: In vitro kinase assay (Z'-LYTE, Invitrogen); format: biochemical; conditions: compound at 100 nM, ATP Km apparent, read-out: % of inhibition of the kinase compared to the control
T5 construct: purchased Invitrogen
Description: as §2, §3, §4

FGFR2 = biological target: T6, FGFR2 (Homo sapiens, UniProt P21802); assay: In vitro kinase assay (Z'-LYTE, Invitrogen); format: biochemical; conditions: compound at 100 nM, ATP Km apparent, read-out: % of inhibition of the kinase compared to the control
T6 construct: purchased Invitrogen
Description: as §2, §3, §4

SRC = biological target: T7, SRC (Homo sapiens, UniProt P12931); assay: In vitro kinase assay (Z'-LYTE, Invitrogen); format: biochemical; conditions: compound at 100 nM, ATP Km apparent, read-out: % of inhibition of the kinase compared to the control
T7 construct: purchased Invitrogen
Description: as §2, §3, §4

MDA-MB-231 cell line = assay: In vitro cell proliferation assay (MTT); format: cell-based; conditions: Homo sapiens, MDA-MB-231, 72 hr, read-out: EC50, anti-proliferative activity
Description: as §1

HeLa cell line = assay: In vitro cell proliferation assay (MTT); format: cell-based; conditions: Homo sapiens, 72 hr, read-out: EC50, anti-proliferative activity
Description: as §1

A549 cell line = assay: In vitro cell proliferation assay (MTT); format: cell-based; conditions: Homo sapiens, A549, 72 h, read-out: EC50, anti-proliferative activity
Description: as §1

T4 sequence (P00533 25-1210 T790M/L858R): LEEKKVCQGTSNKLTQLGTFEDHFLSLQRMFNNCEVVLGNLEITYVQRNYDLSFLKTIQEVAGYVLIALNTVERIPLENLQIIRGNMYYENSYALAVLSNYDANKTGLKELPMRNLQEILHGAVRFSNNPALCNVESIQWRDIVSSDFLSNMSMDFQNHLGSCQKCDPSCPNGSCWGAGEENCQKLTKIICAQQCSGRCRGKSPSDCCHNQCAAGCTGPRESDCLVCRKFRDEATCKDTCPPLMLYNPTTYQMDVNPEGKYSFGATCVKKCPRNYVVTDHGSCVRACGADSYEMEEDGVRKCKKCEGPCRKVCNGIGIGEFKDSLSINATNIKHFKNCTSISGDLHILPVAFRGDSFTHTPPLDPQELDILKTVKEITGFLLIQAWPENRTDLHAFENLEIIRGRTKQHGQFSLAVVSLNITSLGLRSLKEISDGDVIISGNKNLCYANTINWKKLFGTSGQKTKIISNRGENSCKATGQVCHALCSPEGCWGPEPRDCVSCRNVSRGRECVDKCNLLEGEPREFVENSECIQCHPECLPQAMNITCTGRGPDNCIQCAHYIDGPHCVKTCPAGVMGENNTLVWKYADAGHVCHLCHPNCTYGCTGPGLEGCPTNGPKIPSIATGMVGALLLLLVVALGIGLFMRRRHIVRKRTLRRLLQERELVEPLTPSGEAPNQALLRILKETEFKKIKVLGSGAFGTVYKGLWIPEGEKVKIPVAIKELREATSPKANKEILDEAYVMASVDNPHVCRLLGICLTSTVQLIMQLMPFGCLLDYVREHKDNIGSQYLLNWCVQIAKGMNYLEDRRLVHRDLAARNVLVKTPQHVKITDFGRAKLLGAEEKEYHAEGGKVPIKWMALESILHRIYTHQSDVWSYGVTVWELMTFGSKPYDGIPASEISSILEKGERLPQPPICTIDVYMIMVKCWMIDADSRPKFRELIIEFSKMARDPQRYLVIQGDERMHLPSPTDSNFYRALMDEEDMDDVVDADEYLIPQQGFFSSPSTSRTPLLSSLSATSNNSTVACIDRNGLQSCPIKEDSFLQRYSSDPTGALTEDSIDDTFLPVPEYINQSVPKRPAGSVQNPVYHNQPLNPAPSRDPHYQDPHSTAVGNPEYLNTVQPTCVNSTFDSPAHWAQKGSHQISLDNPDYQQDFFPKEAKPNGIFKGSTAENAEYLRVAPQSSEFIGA
T2 sequence (P35968 20-1356): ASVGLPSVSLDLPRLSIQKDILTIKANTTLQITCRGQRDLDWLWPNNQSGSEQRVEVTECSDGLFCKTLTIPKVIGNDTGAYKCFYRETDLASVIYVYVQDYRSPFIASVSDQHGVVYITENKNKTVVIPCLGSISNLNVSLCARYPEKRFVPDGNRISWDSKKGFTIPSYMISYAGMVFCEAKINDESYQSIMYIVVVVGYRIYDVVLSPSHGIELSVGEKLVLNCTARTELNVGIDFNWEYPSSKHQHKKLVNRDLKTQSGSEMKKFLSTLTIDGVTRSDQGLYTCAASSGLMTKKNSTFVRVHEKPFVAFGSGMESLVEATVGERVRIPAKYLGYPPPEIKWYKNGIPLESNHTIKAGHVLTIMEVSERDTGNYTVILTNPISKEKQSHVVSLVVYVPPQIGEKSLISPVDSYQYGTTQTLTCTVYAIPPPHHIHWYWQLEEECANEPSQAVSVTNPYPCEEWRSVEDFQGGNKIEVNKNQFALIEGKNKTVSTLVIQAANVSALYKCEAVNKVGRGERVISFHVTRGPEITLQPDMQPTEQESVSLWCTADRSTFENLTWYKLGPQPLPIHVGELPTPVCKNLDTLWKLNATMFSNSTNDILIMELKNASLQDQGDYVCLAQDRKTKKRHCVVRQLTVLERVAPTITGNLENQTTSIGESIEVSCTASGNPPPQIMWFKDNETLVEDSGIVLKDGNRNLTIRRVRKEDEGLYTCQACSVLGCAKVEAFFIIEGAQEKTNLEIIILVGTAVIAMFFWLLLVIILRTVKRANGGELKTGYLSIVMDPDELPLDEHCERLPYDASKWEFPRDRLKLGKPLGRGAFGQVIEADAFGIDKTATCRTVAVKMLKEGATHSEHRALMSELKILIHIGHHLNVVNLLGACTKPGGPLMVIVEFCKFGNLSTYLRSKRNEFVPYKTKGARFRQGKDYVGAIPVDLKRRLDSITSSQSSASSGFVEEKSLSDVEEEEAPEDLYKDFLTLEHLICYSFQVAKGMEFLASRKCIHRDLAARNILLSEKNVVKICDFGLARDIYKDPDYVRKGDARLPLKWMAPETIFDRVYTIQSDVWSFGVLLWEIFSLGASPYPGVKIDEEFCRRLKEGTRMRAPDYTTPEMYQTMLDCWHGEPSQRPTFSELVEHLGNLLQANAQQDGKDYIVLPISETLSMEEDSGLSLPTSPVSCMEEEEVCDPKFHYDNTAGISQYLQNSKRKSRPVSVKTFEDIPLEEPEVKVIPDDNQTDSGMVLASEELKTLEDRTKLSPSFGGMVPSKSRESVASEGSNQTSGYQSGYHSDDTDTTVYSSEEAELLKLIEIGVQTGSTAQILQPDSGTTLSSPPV
T1 sequence (P16234 24-1089): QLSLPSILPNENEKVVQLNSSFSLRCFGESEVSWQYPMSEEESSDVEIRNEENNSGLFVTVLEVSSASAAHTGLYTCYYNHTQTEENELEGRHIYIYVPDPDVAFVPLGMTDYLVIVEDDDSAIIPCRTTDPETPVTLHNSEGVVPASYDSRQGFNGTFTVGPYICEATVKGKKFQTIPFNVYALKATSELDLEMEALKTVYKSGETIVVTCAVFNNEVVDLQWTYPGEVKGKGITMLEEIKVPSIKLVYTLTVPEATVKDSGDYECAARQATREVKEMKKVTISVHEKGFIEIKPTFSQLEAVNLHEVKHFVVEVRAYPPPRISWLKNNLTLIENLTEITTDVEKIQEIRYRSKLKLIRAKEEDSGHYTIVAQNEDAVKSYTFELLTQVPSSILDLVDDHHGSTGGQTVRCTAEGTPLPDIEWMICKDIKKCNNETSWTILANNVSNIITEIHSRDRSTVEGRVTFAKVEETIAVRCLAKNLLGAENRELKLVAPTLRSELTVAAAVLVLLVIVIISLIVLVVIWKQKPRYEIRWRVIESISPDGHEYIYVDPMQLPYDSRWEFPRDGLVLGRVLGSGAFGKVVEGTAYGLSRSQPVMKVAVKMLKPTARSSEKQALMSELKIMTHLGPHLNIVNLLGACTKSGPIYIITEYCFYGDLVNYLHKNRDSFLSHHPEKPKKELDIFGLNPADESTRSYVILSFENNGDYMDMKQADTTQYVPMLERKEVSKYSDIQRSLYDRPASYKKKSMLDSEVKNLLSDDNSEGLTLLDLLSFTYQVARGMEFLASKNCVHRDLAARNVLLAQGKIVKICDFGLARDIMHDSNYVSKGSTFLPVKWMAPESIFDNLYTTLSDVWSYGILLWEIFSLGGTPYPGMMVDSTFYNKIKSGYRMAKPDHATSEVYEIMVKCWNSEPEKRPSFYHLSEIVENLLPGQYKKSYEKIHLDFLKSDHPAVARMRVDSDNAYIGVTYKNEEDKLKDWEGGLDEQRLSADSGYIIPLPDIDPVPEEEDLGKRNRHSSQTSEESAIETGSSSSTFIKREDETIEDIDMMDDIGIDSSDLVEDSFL
T6 sequence (P21802 22-821): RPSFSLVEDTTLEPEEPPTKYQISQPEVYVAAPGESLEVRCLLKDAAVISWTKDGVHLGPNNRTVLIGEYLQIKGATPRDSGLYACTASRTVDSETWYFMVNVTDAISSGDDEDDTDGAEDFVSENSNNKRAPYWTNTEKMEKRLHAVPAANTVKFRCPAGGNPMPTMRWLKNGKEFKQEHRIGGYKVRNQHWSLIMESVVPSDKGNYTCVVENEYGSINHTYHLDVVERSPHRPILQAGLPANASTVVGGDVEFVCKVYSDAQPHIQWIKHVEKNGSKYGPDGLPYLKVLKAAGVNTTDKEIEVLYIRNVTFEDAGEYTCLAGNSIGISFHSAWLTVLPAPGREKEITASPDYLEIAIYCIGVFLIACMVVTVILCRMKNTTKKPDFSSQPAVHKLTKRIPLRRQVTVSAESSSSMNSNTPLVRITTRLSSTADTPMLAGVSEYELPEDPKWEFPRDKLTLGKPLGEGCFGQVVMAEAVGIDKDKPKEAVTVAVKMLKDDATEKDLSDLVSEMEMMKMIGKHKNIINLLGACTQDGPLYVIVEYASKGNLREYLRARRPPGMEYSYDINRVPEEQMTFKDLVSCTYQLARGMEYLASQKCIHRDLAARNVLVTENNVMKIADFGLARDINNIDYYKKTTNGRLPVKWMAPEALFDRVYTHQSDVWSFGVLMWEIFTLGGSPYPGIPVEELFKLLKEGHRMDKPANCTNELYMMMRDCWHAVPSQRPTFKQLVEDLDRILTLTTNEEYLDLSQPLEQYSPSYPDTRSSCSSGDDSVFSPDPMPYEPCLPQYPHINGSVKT
T7 sequence (P12931 whole entry): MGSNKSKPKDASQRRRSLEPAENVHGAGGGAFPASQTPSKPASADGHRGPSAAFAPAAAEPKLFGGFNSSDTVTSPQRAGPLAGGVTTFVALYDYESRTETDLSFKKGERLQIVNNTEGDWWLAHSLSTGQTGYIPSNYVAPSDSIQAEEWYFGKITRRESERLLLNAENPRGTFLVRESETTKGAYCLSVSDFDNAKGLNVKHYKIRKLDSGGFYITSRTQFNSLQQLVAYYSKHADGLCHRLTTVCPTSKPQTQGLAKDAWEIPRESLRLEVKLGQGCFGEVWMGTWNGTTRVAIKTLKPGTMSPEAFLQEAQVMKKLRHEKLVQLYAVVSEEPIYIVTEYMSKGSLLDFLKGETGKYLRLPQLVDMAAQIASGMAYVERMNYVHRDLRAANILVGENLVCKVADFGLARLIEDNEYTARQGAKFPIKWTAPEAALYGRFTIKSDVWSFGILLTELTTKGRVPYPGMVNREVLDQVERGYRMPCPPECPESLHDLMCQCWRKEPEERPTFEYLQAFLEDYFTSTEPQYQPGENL

Compound	pEC50 (HuH6 Clone 5 cell line)	pEC50 (HepG2 cell line; EC50 ≧ 1 μM)	pEC50 (HuH7 cell line)	inhibition at 0.1 µM (PDGFRA (PDGFR alpha)) [%]	inhibition at 0.1 µM (KDR (VEGFR2)) [%]	inhibition at 0.1 µM (BRAF) [%]	inhibition at 0.1 µM (EGFR (ErbB1) T790M L858R) [%]	inhibition at 0.1 µM (EGFR (ErbB1)) [%]	inhibition at 0.1 µM (FGFR2) [%]	inhibition at 0.1 µM (SRC) [%]	pEC50 (MDA-MB-231 cell line; EC50 ≧ 1 μM)	pEC50 (HeLa cell line; EC50 ≧ 1 μM)	pEC50 (A549 cell line; EC50 ≧ 1 μM)	pEC50 (MDA-MB-231 cell line; 100 nM < EC50 < 1 μM)	pEC50 (HeLa cell line; 100 nM < EC50 < 1 μM)	pEC50 (A549 cell line; 100 nM < EC50 < 1 μM)	pEC50 (HepG2 cell line; 100 nM < EC50 < 1 μM)	pEC50 (HuCCT1 cell line)	pEC50 (HUVEC cells; 100 nM < EC50 < 1 μM)	pEC50 (HUVEC cells; EC50 ≧ 1 μM)
CNC(=O)c1cc(Oc2ccc(NC(=O)Nc3ccc(Cl)c(C(F)(F)F)c3)cc2)ccn1 [Sorafenib, reference compound]	5.52 to 6.00	5.52 to 6.00	5.52 to 6.00	–	–	–	–	–	–	–	–	–	–	–	–	–	–	5.52 to 6.00	6.00 to 7.00	–
COC(=O)c1cc2cc(CNC(=O)c3cc(NC(=O)c4ccc(CN5CCC(N(C)C)C5)c(C(F)(F)F)c4)ccc3C)cnc2[nH]1 (stereo not drawn) [OR0726, 5-({5-[4-(3-Dimethylamino-pyrrolidin-1-ylmethyl)-3-trifluoromethyl-benzoylamino]-2-methyl-benzoylamino}-methyl)-1H-pyrrolo[2,3-b]pyridine-2-carboxylic acid methyl ester]	–	–	–	< 50	< 50	< 50	< 50	< 50	< 50	< 50	–	–	–	–	–	–	–	–	–	–
COC(=O)c1cc2cc(CNC(=O)c3cc(NC(=O)c4ccc(CN5CCN(C)CC5)cc4)ccc3C)cnc2[nH]1 [OR0730, 5-({2-Methyl-5-[4-(4-methyl-piperazin-1-ylmethyl)-benzoylamino]-benzoylamino}-methyl)-1H-pyrrolo[2,3-b]pyridine-2-carboxylic acid methyl ester]	–	–	–	< 50	< 50	< 50	< 50	< 50	< 50	< 50	–	–	–	–	–	–	–	–	–	–
COC(=O)c1cc2cc(CNC(=O)c3cc(NC(=O)c4ccc(CN5CCN(C)CC5)c(C(F)(F)F)c4)ccc3C)cnc2[nH]1 [OR0728, 5-({2-Methyl-5-[4-(4-methyl-piperazin-1-ylmethyl)-3-trifluoromethyl-benzoylamino]-benzoylamino}-methyl)-1H-pyrrolo[2,3-b]pyridine-2-carboxylic acid methyl ester]	–	–	–	≥ 50	< 50	< 50	< 50	< 50	< 50	< 50	–	–	–	–	–	–	–	–	–	–
Cc1nc(Nc2ncc(C(=O)Nc3c(C)cccc3Cl)s2)cc(N2CCN(CCO)CC2)n1 [Dasatinib, reference compound]	–	≤ 6.00	–	–	–	–	–	–	–	–	–	–	–	–	–	–	–	≤ 6.00	–	≤ 6.00
COC(=O)c1cc2cc(C=Nc3cc(NC(=O)c4ccc(CN5CCN(C)CC5)c(C(F)(F)F)c4)ccc3C)cnc2[nH]1 [OR1070, 5-({2-Methyl-5-[4-(4-methyl-piperazin-1-ylmethyl)-3-trifluoromethyl-benzoylamino]-phenylimino}-methyl)-1H-pyrrolo[2,3-b]pyridine-2-carboxylic acid methyl ester]	–	≤ 6.00	–	≥ 50	≥ 50	< 50	–	≥ 50	≥ 50	≥ 50	≤ 6.00	≤ 6.00	≤ 6.00	–	–	–	–	–	–	≤ 6.00
CC(=O)c1cc2cc(C(=O)Nc3cc(NC(=O)c4ccc(CN5CCN(C)CC5)c(C(F)(F)F)c4)ccc3C)cnc2[nH]1 [OR0724, 2-Acetyl-1H-pyrrolo[2,3-b]pyridine-5-carboxylic acid {2-methyl-5-[4-(4-methyl-piperazin-1-ylmethyl)-3-trifluoromethyl-benzoylamino]-phenyl}-amide]	–	–	–	< 50	< 50	< 50	≥ 50	≥ 50	< 50	< 50	–	–	–	–	–	–	–	–	–	–
COC(=O)c1cc2cc(CCc3cc(NC(=O)c4ccc(CN5CCN(C)CC5)cc4)ccc3C)cnc2[nH]1 [OR0834, 5-(2-{2-Methyl-5-[4-(4-methyl-piperazin-1-ylmethyl)-benzoylamino]-phenyl}-ethyl)-1H-pyrrolo[2,3-b]pyridine-2-carboxylic acid methyl ester]	–	≤ 6.00	≤ 6.00	≥ 50	≥ 50	< 50	–	≥ 50	< 50	≥ 50	–	–	–	–	–	–	–	–	–	≤ 6.00

Second part, led by results:

pEC50 (HuH6 Clone 5 cell line)	pEC50 (HepG2 cell line; EC50 ≧ 1 μM)	pEC50 (HuH7 cell line)	inhibition at 0.1 µM (PDGFRA (PDGFR alpha)) [%]	inhibition at 0.1 µM (KDR (VEGFR2)) [%]	inhibition at 0.1 µM (BRAF) [%]	inhibition at 0.1 µM (EGFR (ErbB1) T790M L858R) [%]	inhibition at 0.1 µM (EGFR (ErbB1)) [%]	inhibition at 0.1 µM (FGFR2) [%]	inhibition at 0.1 µM (SRC) [%]	pEC50 (MDA-MB-231 cell line; EC50 ≧ 1 μM)	pEC50 (HeLa cell line; EC50 ≧ 1 μM)	pEC50 (A549 cell line; EC50 ≧ 1 μM)	pEC50 (MDA-MB-231 cell line; 100 nM < EC50 < 1 μM)	pEC50 (HeLa cell line; 100 nM < EC50 < 1 μM)	pEC50 (A549 cell line; 100 nM < EC50 < 1 μM)	pEC50 (HepG2 cell line; 100 nM < EC50 < 1 μM)	Compound	pEC50 (HuCCT1 cell line)	pEC50 (HUVEC cells; 100 nM < EC50 < 1 μM)	pEC50 (HUVEC cells; EC50 ≧ 1 μM)
–	≤ 6.00	–	≥ 50	≥ 50	< 50	–	≥ 50	≥ 50	≥ 50	≤ 6.00	≤ 6.00	≤ 6.00	–	–	–	–	COC(=O)c1cc2cc(CCc3ccc(C)c(NC(=O)c4cc(-n5cnc(C)c5)cc(C(F)(F)F)c4)c3)cnc2[nH]1 [OR1068, 5-(2-{4-Methyl-3-[3-(4-methyl-imidazol-1-yl)-5-trifluoromethyl-benzoylamino]-phenyl}-ethyl)-1H-pyrrolo[2,3-b]pyridine-2-carboxylic acid methyl ester]	–	6.00 to 7.00	–
–	–	–	≥ 50	≥ 50	≥ 50	–	≥ 50	≥ 50	≥ 50	–	–	–	6.00 to 7.00	6.00 to 7.00	6.00 to 7.00	6.00 to 7.00	CC(=O)c1cc2cc(CCc3cc(NC(=O)c4cc(N5CCN(C)CC5)cc(C(F)(F)F)c4)ccc3C)cnc2[nH]1 [OR1059, N-{3-[2-(2-Acetyl-1H-pyrrolo[2,3-b]pyridin-5-yl)-ethyl]-4-methyl-phenyl}-3-(4-methyl-piperazin-1-yl)-5-trifluoromethyl-benzamide]	–	–	≤ 6.00
–	–	–	< 50	< 50	< 50	< 50	≥ 50	< 50	< 50	–	–	–	–	–	–	–	CC(=O)c1cc2cc(C(=O)Nc3cc(NC(=O)c4cc(-n5cnc(C)c5)cc(C(F)(F)F)c4)ccc3C)cnc2[nH]1 [OR0723, 2-Acetyl-1H-pyrrolo[2,3-b]pyridine-5-carboxylic acid {2-methyl-5-[3-(4-methyl-imidazol-1-yl)-5-trifluoromethyl-benzoylamino]-phenyl}-amide]	–	–	–
–	≤ 6.00	–	< 50	< 50	< 50	–	< 50	< 50	< 50	≤ 6.00	≤ 6.00	≤ 6.00	–	–	–	–	COC(=O)c1cc2cc(CCc3cccc(NC(=S)Cc4cccc(C(F)(F)F)c4)c3)cnc2[nH]1 [OR1014, 5-(2-{3-[2-(3-Trifluoromethyl-phenyl)-thioacetylamino]-phenyl}-ethyl)-1H-pyrrolo[2,3-b]pyridine-2-carboxylic acid methyl ester]	–	6.00 to 7.00	–
